Read-outs that look alike come from different tables or passages of the source.
Columns and labels:
recombinant human hepsin = recombinant human hepsin (Homo sapiens, UniProt P05981); experiment: Hepsin activity assay (chromogenic substrate pyroGlu-Pro-Arg-pNA); format: biochemical
Experimental: D. Hepsin, Trypsin and Thrombin Activity Assays.
Purified recombinant hepsin was preincubated with indicated compounds for 30 minutes at room temperature.

thrombin = thrombin (Bos taurus (Bovine), UniProt P00735); experiment: Thrombin activity assay (chromogenic substrate); format: biochemical; conditions: for IC50: 30 minutes preincubation at room temperature, substrate at Km
Experimental: (§1) Titration of the chromogenic substrate pryoGlu-Pro-Arg-pNA was performed for each enzyme and the resulting substrate-velocity data fit with nonlinear regression using GraphPad Prism 4 software (GraphPad, La Jolla, Calif.) to calculate Vmax and Km. […] The reactions were then followed using a kinetic microplate reader and the linear rates of increase in absorbance at 405 nm expressed as percent activity (100%×vi/vo). At least three independent experiments were performed for each enzyme. The IC50 was calculated by fitting the data to a four-parameter non-linear regression using GraphPad Prism 4.

trypsin = trypsin (Sus scrofa (Pig), UniProt P00761); experiment: Trypsin activity assay (chromogenic substrate); conditions: read-out: IC50 trypsin; 30 minutes preincubation at room temperature, substrate at Km
Experimental: as §1

LNCaP cells = experiment: Cell cytotoxicity assay (CellTiter-Glo, ATP-luciferase); conditions: 20 μM, 72 hours, compounds replenished daily
[1] = tested on: MP-1 mouse prostate epithelial cell line; experiment: as above; conditions: MP-1, 20 μM, 72 hours, compounds replenished daily
HepG2 cells = experiment: as above; conditions: HepG2, 20 μM, 72 hours, compounds replenished daily
[2] = biological target: full-length wild-type murine hepsin expressed in HEK 293FT cells (Mus musculus (Mouse), UniProt O35453); experiment: Hepsin-dependent pericellular serine proteolytic activity assay; format: cell-based; conditions: for attenuation of hepsin-dependent pericellular proteolytic activity: 50 μM, activity/expression level relative to vehicle; for attenuation of hepsin-dependent pericellular proteolytic activity / pericellular proteolytic activity (in words): overnight incubation; for pericellular proteolytic activity (in words): 20 and 50 μM
Experimental: Loading was verified via immunoblot against β-actin.
G. Pericellular Serine Proteolytic Activity Assay. […] After 3.5 hrs, transfection media was replaced with fresh media containing 20 μM or 50 μM of test compounds or solvent control (0.5% DMSO in media) and cells incubated overnight. Attached cell monolayers were then washed twice with PBS and once with assay buffer (5% CO2 equilibrated phenol-red free DMEM with 1% BSA) to remove residual serum proteases/inhibitors. Cells were then incubated in assay buffer containing 20 or 50 μM compounds for 30 minutes at 37° C. […] Percent inhibition was calculated as residual activity relative to solvent control. Matched samples were used in parallel to determine toxicity of the test compounds to HEK 293FT cells in this system using the CellTiter-Glo™ assay.
D. Inhibition of Hepsin-Dependent Pericellular Proteolytic Activity. To determine whether the identified compounds were able to inhibit cell-based hepsin activity, an assay was devised to measure hepsin-dependent pericellular serine proteolytic activity (FIG. 5A) (Raynaud et al., 1992 J Cell Physiol 151:378; Bauvois et al., 1990 Eur. J. Immunol. 20:459; Bauvois et al., 1992 Eur. J. Immunol. 22:923; Sameni et al., 2000 Neoplasia 2:496; McGowen et al., 2000 Canc. Res. 60:4771). […] Attached cell monolayers were incubated in assay buffer with peptide substrate and the reactions were allowed to proceed at 37° C. […] Activity levels were adjusted by altering hepsin expression levels to within the linear range of detection. A positive linear rate of activity was observed only for wild-type hepsin-expressing cells and was abolished in the presence of the broad spectrum serine protease inhibitor PEFAbloc.

hepsin = hepsin (Mus musculus (Mouse), UniProt O35453); experiment: Immunoblot of hepsin expression levels in compound treated HEK 293FT cells; conditions: 20 and 50 μM, 24 hours
Experimental: The membrane was blocked overnight in TBST buffer containing: 5% non-fat milk, 2% normal goat serum in 50 mM Tris-HCl, pH 8.0, 100 mM NaCl, 0.1% Tween-20. The membrane was then incubated in 3% BSA in TBST with polyclonal anti-hepsin antibody (1:1000) for two hours at room temperature, washed 3×5 minutes with TBST and incubated for one hour in 0.1% BSA in TBST containing goat-anti-rabbit-HRP secondary antibody (1:2000), washed 3×5 minutes in TBST and developed with ECL (Pierce Chemicals, Rockford, Ill.). […] Expression levels were quantified by densitometry using ImageQuantTL™ (GE Healthcare Life Sciences, Piscataway, N.J.).
As treatment with chemical compounds may alter hepsin expression level (and thereby impact pericellular proteolytic activity), hepsin levels in drug-treated cells were determined via immunoblotting (FIG. 6B).

HEK 293FT cells = experiment: Toxicity to HEK 293FT cells in the pericellular protease assay system (CellTiter-Glo); format: cell-based; conditions: 50 μM, 24-hour treatment
Experimental: The chromogenic serine protease substrate pyroglutamyl-L-prolyl-L-argininne-p-nitroaniline hydrochloride (pyrGlu-Pro-Arg-pNA) was then added to the media. […] (FIG. 5B) Toxicity of the candidate hepsin inhibitor compounds over the course of the pericellular protease assay was evaluated by 24-hour treatment of cells with 20 μM (white bars) or 50 μM (black bars) compounds, relative to vehicle control. […] Puromycin at 5 μg/mL was used as a positive control.
G. Pericellular Serine Proteolytic Activity Assay. […] After 3.5 hrs, transfection media was replaced with fresh media containing 20 μM or 50 μM of test compounds or solvent control (0.5% DMSO in media) and cells incubated overnight. […] Percent inhibition was calculated as residual activity relative to solvent control. […]
To determine the potential cytotoxicity of the previously identified hepsin inhibitors in this model system, HEK 293FT cells were incubated under identical conditions with 20 and 50 μM of the compounds and cytotoxicity was determined using the ATP-luciferase coupled assay as described above (FIG. 5B). […] The remaining compounds at 20 and 50 μM final concentration were incubated overnight with hepsin expressing cells and pericellular proteolytic activity was determined as described above (FIG. 6).

[3] = 30 minutes preincubation at room temperature, substrate at Km

Chain of trypsin (P00761 9-231): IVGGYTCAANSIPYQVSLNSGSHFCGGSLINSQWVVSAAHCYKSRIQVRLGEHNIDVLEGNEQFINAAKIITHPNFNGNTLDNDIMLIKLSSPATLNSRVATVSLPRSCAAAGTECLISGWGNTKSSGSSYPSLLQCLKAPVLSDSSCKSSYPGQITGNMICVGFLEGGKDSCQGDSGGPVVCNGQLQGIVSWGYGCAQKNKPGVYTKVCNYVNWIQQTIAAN
Chain of full-length wild-type murine hepsin expressed in HEK 293FT cells (O35453 other isoform, or with tags, fused parts or gaps): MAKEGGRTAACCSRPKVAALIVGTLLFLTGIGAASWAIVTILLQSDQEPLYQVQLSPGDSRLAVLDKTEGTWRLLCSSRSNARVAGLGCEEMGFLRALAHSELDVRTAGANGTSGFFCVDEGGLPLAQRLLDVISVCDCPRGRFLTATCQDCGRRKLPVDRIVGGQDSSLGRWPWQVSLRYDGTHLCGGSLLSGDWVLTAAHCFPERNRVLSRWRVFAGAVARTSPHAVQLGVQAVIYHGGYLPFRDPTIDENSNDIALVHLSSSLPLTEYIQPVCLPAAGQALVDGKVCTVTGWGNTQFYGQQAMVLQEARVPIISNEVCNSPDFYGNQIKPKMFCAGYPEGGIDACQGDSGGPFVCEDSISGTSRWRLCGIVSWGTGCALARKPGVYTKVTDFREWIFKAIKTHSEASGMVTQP
Chain of recombinant human hepsin (P05981 1-162 limits assumed): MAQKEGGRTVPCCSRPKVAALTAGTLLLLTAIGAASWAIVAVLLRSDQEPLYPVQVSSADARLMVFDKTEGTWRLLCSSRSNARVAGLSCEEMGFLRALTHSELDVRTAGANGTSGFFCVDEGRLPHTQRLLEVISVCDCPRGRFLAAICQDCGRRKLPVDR
Chain of recombinant human hepsin (P05981 163-417 limits assumed): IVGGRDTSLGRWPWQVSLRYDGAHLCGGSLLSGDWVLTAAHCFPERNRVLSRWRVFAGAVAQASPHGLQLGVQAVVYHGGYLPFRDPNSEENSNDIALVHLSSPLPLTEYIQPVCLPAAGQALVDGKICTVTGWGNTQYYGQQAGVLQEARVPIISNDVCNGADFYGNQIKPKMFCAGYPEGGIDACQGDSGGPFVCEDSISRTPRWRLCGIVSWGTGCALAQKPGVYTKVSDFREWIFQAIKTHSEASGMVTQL

SMILES | IC50 (recombinant human hepsin; [3]) | IC50 (thrombin) | IC50 (trypsin) | cellular toxicity (cell viability) (LNCaP cells) | cellular toxicity (cell viability) [1] | cellular toxicity (cell viability) (HepG2 cells) | attenuation of hepsin-dependent pericellular proteolytic activity [2] | pericellular proteolytic activity (in words) [2] | hepsin expression levels (hepsin) | pericellular proteolytic activity in the presence of inhibitor ([2]; wild-type hepsin-expressing cells, 30 minutes incubation) | cytotoxicity to HEK 293FT cells (HEK 293FT cells) | IC50 (recombinant human hepsin) | activation of thrombin activity (thrombin; at 1 μM)
CC1(C)CC(=O)c2c(oc3c(Br)cc(NS(=O)(=O)c4ccccc4)cc23)C1 [Compound 10, N-(4-bromo-7,7-dimethyl-9-oxo-6,7,8,9-tetrahydrodibenzo[b,d]furan-2-yl)benzenesulfonamide] | 0.93 ± 0.13 µM | > 20 µM | 7.72 ± 1.1 µM | limited or no cytotoxicity | limited or no cytotoxicity | limited or no cytotoxicity | – | – | – | – | – | – | –
O=c1oc(-c2cccc(F)c2)nc2ccc(Cc3ccc4nc(-c5cccc(F)c5)oc(=O)c4c3)cc12 [Compound 7, 6,6′-methylenebis[2-(3-fluorophenyl)-4H-3,1-benzooxazin-4-one]] | 2.31 ± 0.53 µM | > 20 µM | 13.1 ± 3 µM | limited or no cytotoxicity | limited or no cytotoxicity | limited or no cytotoxicity | – | – | – | – | – | – | –
O=[N+]([O-])c1cccc(C2Nc3ccc(Cl)cc3C3C=CCC32)c1 (centres unmarked) [Compound 6, 8-chloro-4-(3-nitrophenyl)-3a,4,5,9b-tetrahydro-3H-cyclopenta[c]quinoline] | 0.98 ± 0.2 µM | > 20 µM | 10.2 ± 1.5 µM | limited or no cytotoxicity | limited or no cytotoxicity | limited or no cytotoxicity | – | – | – | – | – | – | –
Cc1ccc(OCc2nnc(NC(=O)Nc3cccc(Cl)c3)s2)cc1C [Compound 2, N-(3-chlorophenyl)-N′-{5-[(3,4-dimethylphenoxy)methyl]-1,3,4-thiadiazol-2-yl}urea] | 0.76 ± 0.26 µM | > 20 µM | > 20 µM | substantial toxicity | without affecting | without affecting | – | – | – | – | – | – | –
O=[N+]([O-])c1ccc(C2Nc3c(cccc3C(F)(F)F)C3C=CCC32)cc1 (centres unmarked) [Compound 5, 4-(4-nitrophenyl)-6-(trifluoromethyl)-3a,4,5,9b-tetrahydro-3H-cyclopenta[c]quinoline] | 0.57 ± 0.19 µM | > 20 µM | 31.2 ± 2 µM | limited or no cytotoxicity | limited or no cytotoxicity | limited or no cytotoxicity | approximately 60% | attenuated pericellular proteolytic activity in a dose dependent manner | without substantially affecting hepsin expression levels | – | – | – | –
Cl.NCCc1ccc(S(=O)(=O)F)cc1 [PEFAbloc, reference compound] | – | – | – | – | – | – | – | – | – | abolished | – | – | –
Cc1cccc(C2Nc3cccc4cccc(c34)N2)c1 [Compound 4, 2-(3-methylphenyl)-2,3-dihydro-1H-perimidine] | 0.35 ± 0.12 µM | > 20 µM | 19.6 ± 2.7 µM | limited or no cytotoxicity | limited or no cytotoxicity | limited or no cytotoxicity | approximately 60% | attenuated pericellular proteolytic activity in a dose dependent manner | without substantially affecting hepsin expression levels | – | – | – | –
O=C(Nc1ccc(-c2nc3ccccc3o2)c(O)c1)c1ccc(-c2cccc([N+](=O)[O-])c2)o1 [Compound 12, N-[4-(1,3-benzoxazol-2-yl)-3-hydroxyphenyl]-5-(3-nitrophenyl)-2-furamide] | 0.33 ± 0.07 µM | > 20 µM | 3.5 ± 0.67 µM | substantially toxic | substantially toxic | without affecting | – | – | – | – | substantial toxicity | – | –
O=C(Nc1ccc(Cl)c(Cl)c1)Nc1nnc(-c2ccc(Br)cc2)s1 [Compound 8, N-[5-(4-bromophenyl)-1,3,4-thiadiazol-2-yl]-N′-(3,4-dichlorophenyl)urea] | 0.72 ± 0.2 µM | > 20 µM | 1.71 ± 0.21 µM | limited or no cytotoxicity | limited or no cytotoxicity | limited or no cytotoxicity | – | – | – | – | – | – | –
COc1cccc(OCCOc2cccc(/C=c3\sc4nc5ccccc5n4c3=O)c2)c1 [Compound 11, 2-{3-[2-(3-methoxyphenoxy)ethoxy]benzylidene}[1,3]thiazolo[3,2-a]benzimidazol-3(2H)-one] | – | – | 2 ± 0.33 µM | limited or no cytotoxicity | limited or no cytotoxicity | limited or no cytotoxicity | – | – | – | – | – | 1.31 ± 0.44 µM | –
Oc1nc2cc(Cl)c(Cl)cc2nc1O [Compound 16, 2,3-dihydroxy-6,7-dichloroquinoxaline] | 0.75 ± 0.09 µM | > 20 µM | 2.42 ± 0.29 µM | limited or no cytotoxicity | limited or no cytotoxicity | limited or no cytotoxicity | – | – | – | – | – | – | –
O=C1C=CC(=O)N1c1cccc([N+](=O)[O-])c1 [Compound 1, 1-(3-nitrophenyl)-1H-pyrrole-2,5-dione] | 0.28 ± 0.07 µM | – | 3.88 ± 0.85 µM | substantial toxicity | without affecting | without affecting | – | – | – | – | – | – | approximately 3 fold
O=C1NC(=O)N(c2cccc(Br)c2)C(=O)/C1=C/c1c[nH]c2ccccc12 [Compound 3] | 1.93 ± 0.39 µM | > 20 µM | 7.63 ± 1.51 µM | limited or no cytotoxicity | limited or no cytotoxicity | limited or no cytotoxicity | approximately 50% | attenuated pericellular proteolytic activity in a dose dependent manner | without substantially affecting hepsin expression levels | – | – | – | –
O=C1c2c(O)cccc2Cc2cccc(O)c21 [Compound 15, 1,8-dihydroxyanthracen-9(10H)-one, reference compound] | 0.23 ± 0.05 µM | > 20 µM | 1.26 ± 0.3 µM | toxic | toxic | toxic | – | – | – | – | substantial toxicity | – | –
Cc1csc(-c2cc3ccc(OCc4c(F)c(F)c(F)c(F)c4F)cc3oc2=O)n1 [Compound 9, 3-(4-methyl-1,3-thiazol-2-yl)-7-[(pentafluorobenzyl)oxy]-2H-chromen-2-one] | 0.98 ± 0.12 µM | > 20 µM | 20.9 ± 7.5 µM | limited or no cytotoxicity | limited or no cytotoxicity | limited or no cytotoxicity | – | – | – | – | – | – | –

From patent US9182402B2, “Hepsin inhibitors” (Fred Hutchinson Cancer Research Center, priority 2008, dated 2015)
